# Results reported in ChEMBL document CHEMBL1123525, “Synthesis and biological activities of 5-deaza analogues of aminopterin and folic acid” (1986).
# pIC50: −log10 of the molar value.
# Assays:
# L1210 = assay: Compound was evaluated for inhibitory activity against L-1210 leukemic cells in vitro; Range 1.8x10E-8 to 2x10E-7 M; type: functional; conditions: Mus musculus, read-out: ID50 (the source's name)
# P388 = assay: Compound was evaluated for inhibitory activity against P-388 leukemic cells in vitro; Range 1.8x10E-8 to 2x10E-7 M; type: functional; conditions: Mus musculus, read-out: ID50 (the source's name)
smiles,measurement,setting,value
Cc1c(CNc2ccc(C(=O)NC(CCC(=O)O)C(=O)O)cc2)cnc2nc(N)nc(N)c12 (configuration not stated),pIC50,L1210,6.70
same,pIC50,P388,6.70
